The subject of experiment [1] is inhibitory nerve terminal assembly. Set-up: method as in PMID 26975851. The following applies: in vitro; ref [27]; cited from earlier work.
The test system of the next experiment is melanoma cell. The following applies: earlier work of the authors; ref [22],[23]; cited from earlier work. The source says: (§1) The aim of the present work was to study the anti-angiogenic properties of F4 peptide. […] By affinity chromatography, we identified αvβ3 and α5β1 integrins as potential receptors for F4 peptide on endothelial cell surface. Using solid phase assays, ... || Type XIX collagen, that belongs to the FACIT family (Fibril-Associated Collagens with Interrupted Triple helices), is a minor collagen associated to the basement membrane zone.

The test system of the next experiment is mouse melanoma model. The note with it: mouse melanoma model; ref [22],[23]; cited from earlier work.
Excerpt: as §1

Experiment [2] has as its system HUVEC (Human Umbilical Vein Endothelial Cells). Briefly: HUVEC proliferation (crystal violet). In kind it is cell-based. The following applies: 40 μM, 48 h, 5,000 HUVEC per well in ECGM, 560 nm, means ± SD (n = 16), N = 3. The procedure: Figure 1. […] 5,000 HUVEC were seeded in a 96 well plate and incubated with or without 40 μM NC1(XIX) or F4 for 48 hours. After washing, cells were fixed with glutaraldehyde and stained with crystal violet. Dye was eluted with 10% acetic acid and absorbance was read at 560 nm. The values are the means ± SD (n = 16). The experiment was repeated three times (N = 3) and the results presented in the figure correspond to the more representative one
(§2) Human Umbilical Vein Endothelial Cells (HUVEC) (Ref C-12253) were purchased from Promocell. They were grown in Endothelial Cell Growth Medium (ECGM) (Promocell, Ref C-22110: Basal medium supplemented with 0.02 mL/mL Fetal Calf Serum, 0.004 mL/mL Endothelial Cell Growth Supplement, 0.1 ng/mL Epidermal Growth Factor (recombinant human), 1 ng/mL Basic Fibroblast Growth Factor (recombinant human), 90 μg/mL Heparin, 1 μg/mL Hydrocortisone) at +37°C in a humid atmosphere containing 5% CO2. PromoCell Detach Kit was used for the detachment of HUVEC according to the manufacturer’s protocols (Promocell, ref C-41200).
For cell proliferation measurement, 5,000 HUVEC were seeded in 96-well plates and cultivated in ECGM with or without 40 μM NC1(XIX) or F4 at +37°C in a humid atmosphere containing 5% CO2. […] Dye was eluted with 10% (v/v) acetic acid and absorbance was read at 560 nm.

The next experiment has as its system HUVEC. Briefly: Capillary (pseudo-)tube formation on Matrigel. The experiment is classed as cell-based, human. The note with it: 40 µM. The procedure: Figure 2. NC1(XIX) and F4 inhibit endothelial cell in vitro pseudotube formation. 50,000 HUVEC were seeded in Matrigel coated well of a 48 well-plate and incubated with or without 40 μM NC1(XIX) or F4. Pseudotube formation was observed and photographed under an inverted microscope after 8 hours (a). The number of segments, of nodes and the total length of pseudotubes were quantified by the ImageJ software, using the Angiogenesis Analyzer tool (b). The values are the means ± SD (n = 8 replicates). *** p < 0.001). The experiment was repeated three times (N = 3)
as §2
The ability of HUVEC to form pseudo-tubes was investigated on Matrigel (Corning, ref 356237). Matrigel was loaded into 48-well plate and allowed to polymerize at +37°C for 2 h. 50,000 HUVEC suspended in Basal media supplemented with 0.004 mL/mL Endothelial Cell Growth Supplement, 90 μg/mL Heparin, 1 μg/mL Hydrocortisone with or without 40 μM NC1(XIX) or F4 were seeded into each well. Plates were incubated at +37°C in a humid atmosphere containing 5% CO2, 95% for 8 h. The formation of the capillary network was then imaged under an inverted light microscope. Quantitative evaluation of the capillary network was performed using the angiogenesis analyzer tool of ImageJ analysis software. The number of nodes, of segments and the total length of the capillary network were determined.

Experiment [3] relates to α5β1 integrin. Set-up: method as in PMID 26975851. The note with it: NC1(XIX) covalently coupled to agarose beads, cortical protein extract; ref [27]; cited from earlier work.
The test system of experiment [4] is Sprague Dawley rat aortic rings. Briefly: Ex vivo rat aortic ring assay (endothelial cell outgrowth). In kind it is cell-based. The note with it: 40 μM, 14 days, Opti-MEM with 30 ng/mL VEGF, Matrigel, mean ± SD (n = 5), N = 2; p < 0.01 NC1(XIX), p < 0.001 F4. The method, then: Figure 3. NC1(XIX) and F4 inhibit endothelial cell ex vivo migration. Rat aortic rings were embedded in Matrigel in 24 well-plate and then incubated with or without 40 μM NC1(XIX) or F4 for 14 days. Micro-vessel outgrowth was observed under an inverted microscope after 14 days and photographed (a). Cell outgrowth from the tissue explant was measured using a home-made macro based on ImageJ analysis software. The results are presented as mean ± SD (n = 5 replicates) (b). The experiment was repeated twice (N = 2)
The ex vivo rat aortic ring assay was adapted from Baker et al.. Thoracic aorta was dissected from Sprague Dawley rat and stored in Opti-MEM (ThermoFisher, ref 31985062) supplemented with 1% penicillin/streptomycin in a Petri dish. Aorta was then cut into 0.5 mm rings that were incubated in Opti-MEM overnight at +37°C in a Petri dish. Matrigel (7 mg/mL) was loaded in 24-well plate and allowed to polymerize at +37°C for 30 min. The rings were carefully transferred from the Petri dish onto the Matrigel coated wells and were completely embedded by addition of Matrigel. The plate was incubated at +37°C for 30 min. Opti-MEM supplemented with 30 ng/mL VEGF with or without 40 μM NC1(XIX) or F4 was added. Plate was incubated at +37°C in a humid atmosphere containing 5% CO2 for 14 days. The supplemented culture medium was changed every 3 days. Rings were imaged under an inverted light microscope at 14 days. Quantitative evaluation of the angiogenic sprouting was determined by measuring the number of endothelial cell outgrowth from the primary tissue explant using a homemade macro based on ImageJ analysis software. The first step consisted in the semi-automatic selection of aortic ring shape at day 0 by manual threshold allowing the design of a top hat filter to obtain a relevant mask of this structure. The mask was then substracted from day 14 image to keep only outgrowing cells. The second step consisted in a manual threshold and the use of ‘Analyze Particules’ tool involving size criteria. The total cell number of cell outgrowing from the ring was determined.

In another experiment the test system is αvβ3 integrin. The experiment can be described thus: Solid phase assay, direct binding to αvβ3. Set-up: species or system human. The following applies: coated integrin 26 × 10^−7 to 0.1 × 10^−7 mol/L; biotinylated-F4 26 × 10^−5 mol/L, or 20.8 × 10^−4 to 0.16 × 10^−4 mol/L; 90 min, room temperature, streptavidin-peroxidase/TMB, 450 nm; N = 2. The source says: (§3) Figure 5. F4 directly binds to αvβ3 and α5β1 integrins. Direct interaction between αvβ3 or α5β1 integrin and F4 was studied using solid phase assays as described in the material and method section. The F4 peptide was biotinylated to allow its detection using the streptavidin-peroxidase complex. Different conditions were used. (a-b) The amounts of coated αvβ3 (a) or α5β1 integrin (b) were increased while biotinylated F4 peptide was kept constant. (c-d) The concentration of biotinylated F4 peptide was increased while coated amounts of αvβ3 (c) or α5β1 (d) integrins were kept constant. (e-f) Competitive assays were performed using increasing concentrations of F4 peptide while biotinylated-F4 peptide and αvβ3 (e) or α5β1 (f) integrins were kept constant. […]
(§4) Wells of a 96-well plate were coated with α5β1 (ref. 3230-A5-050, R&D systems) and/or αvβ3 integrin (ref. 3050-AV-050, R&D systems) at different concentrations ranging from 26 × 10^−7 mol/L to 0.1 × 10^−7 mol/L (100 μL per well in PBS). […] The intensity of the yellow coloration was measured at 450 nm with an LB940 spectrophotometer (Berthold Technologies).
(§5) The optimum integrin amount for the coating was determined using the above protocol and the optimum ligand concentration was sought using different dilutions of the biotinylated-F4 peptide ranging from 20.8 × 10^−4 to 0.16 × 10^−4 mol/L.

Experiment [5] concerns α5β1 integrin. Briefly: Solid phase assay, direct binding to α5β1. Set-up: species or system human. The following applies: coated integrin 26 × 10^−7 to 0.1 × 10^−7 mol/L; biotinylated-F4 26 × 10^−5 mol/L, or 20.8 × 10^−4 to 0.16 × 10^−4 mol/L; 90 min, room temperature, streptavidin-peroxidase/TMB, 450 nm; N = 2.
Excerpt: as §3, §4, §5

The mark [6] stands for this setting: 8 h, 50,000 HUVEC on Matrigel, ImageJ Angiogenesis Analyzer, p < 0.001 for NC1(XIX) and F4, n = 8, N = 3.

Entries after “also recorded” stand apart in the source; their conditions may differ. Positions of bridges follow the written chain, without caps; N, C: chain ends. No end group written: not given here.

For the substance “NPEDCLYPVSHAHQRTGGN [NC1(XIX), NC1(XIX) domain at the C-terminus of the α1(XIX) collagen chain]”, the “inhibitory nerve terminal assembly” value in experiment [1] is reported as “involved in triggering inhibitory nerve terminal assembly in vitro”. Moreover, the “melanoma cell migration and invasion” value with melanoma cell was “inhibits melanoma cell migration and invasion”. The “in vivo tumor growth and angiogenesis” value in the experiment with mouse melanoma model is “strongly inhibits in vivo tumor growth as well as angiogenesis”. Besides, in experiment [2], the “effect on HUVEC proliferation” value was “not significantly modified; also recorded: does not affect endothelial cell proliferation”. Moreover, in the experiment with HUVEC (setting [6]), the “decrease of the number of nodes vs control” value was determined as 57%, the “decrease of the number of segments vs control” value came to 33% and the “decrease of the total length of capillary tubes vs control” value is listed as 31%. The “inhibition of pseudo-tube formation” value in the experiment with HUVEC (8 h, HUVEC on Matrigel, compared to control) is on record as “strongly inhibited pseudo-tube formation”. Besides, in the experiment on α5β1 integrin [3], the “purification of α5β1 integrin on immobilised peptide” value is “able to purify α5β1 integrin from cortical protein extract”. Besides, the “change of cell outgrowth from aortic ring vs control” value in [4] is reported as −57%.
Take “biotinylated-F4: The F4 peptide was biotinylated to allow its detection using the streptavidin-peroxidase complex (CNPEDCLYPVSHAHQR; disulfide 1-6 (inferred); also: biotinylated (position not given here))”: the “binding to αvβ3, concentration dependence” value in the experiment with αvβ3 integrin was “dependent both on the receptor (Figure 5(a,b)) and on ligand (Figure 5(c,d)) concentrations”. Moreover, the “binding to α5β1, concentration dependence” value in the experiment on α5β1 integrin [5] is “dependent both on the receptor (Figure 5(a,b)) and on ligand (Figure 5(c,d)) concentrations”.

(Values after PMC8312610, “F4, a collagen XIX-derived peptide, inhibits tumor angiogenesis through αvβ3 and α5β1 integrin interaction” (Cell Adhesion & Migration, 2021).)
